This passage reports IC50 results from patent publication US12281122B1, “PI3K inhibitors” (Cogent Biosciences, Inc., priority 2023, dated 2025).

The subject of test [1] is T47D (PI3Kα-H1047R) cell line. Kind of test: HTRF phospho-AKT(S473) cell assay in T47D cells. In kind it is cell-based, human. The note with it: Homo sapiens; T47D (PI3Kα-H1047R) cells, HTRF phospho-AKT(S473), 2 hours compound incubation. In a few lines:
(§1)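 pAKT(S473) in lysates read by HTRF after a 2 h, 37 °C compound exposure (12-point 1:3 series, max 0.5% DMSO). SKBR3 (wild type, top 10 μM) received 70 ng/ml PDGF-BB during the final 15 min; T47D (H1047R, top 5 μM) was unstimulated. IC50 values derived from the dose-response.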

The subject of test [2] is SKBR3 (PI3Kα-Wild Type) cell line. In words: HTRF phospho-AKT(S473) cell assay in SKBR3 cells. Type of test: cell-based, human. The note with it: Homo sapiens, SK-BR-3; SKBR3 (PI3Kα-Wild Type) cells, HTRF phospho-AKT(S473), 2 hours compound incubation, PDGF-BB stimulated. A digest of the protocol: as §1

As to `Cc1cc([C@@H](C)Nc2ccc(Cl)nc2C(=O)NS(C)(=O)=O)c2nc(-c3ccc(Nc4ccn(C)n4)nc3)n(C)c(=O)c2c1` [Compound 339, (R)-6-chloro-3-((1-(3,6-dimethyl-2-(6-((1-methyl-1H-pyrazol-3-yl)amino)pyridin-3-yl)-4-oxo-3,4-dihydroquinazolin-8-yl)ethyl)amino)-N-(methylsulfonyl) picolinamide], the concentration for half-maximal inhibition (IC50) in test [1] is < 250 nM; in test [2], 1000 to 5000 nM.
For `Cc1cc([C@@H](C)Nc2ccc(Cl)nc2C(=O)NS(C)(=O)=O)c2nc(N3[C@@H]4CC[C@H]3C[C@@H](c3ccn(C)n3)C4)n(C)c(=O)c2c1` [Compound 340, 6-chloro-3-(((R)-1-(3,6-dimethyl-2-((1R,3R,5S)-3-(1-methyl-1H-pyrazol-3-yl)-8-azabicyclo[3.2.1]octan-8-yl)-4-oxo-3,4-dihydroquinazolin-8-yl)ethyl)amino)-N-(methylsulfonyl) picolinamide] the same measures were 250 to 500 nM and ≥ 5000 nM.
Regarding `Cc1cc([C@@H](C)Nc2ccc(Cl)nc2C(=O)NS(C)(=O)=O)c2nc(N3C[C@@H]4[C@@H](COc5ccnn5C)[C@@H]4C3)n(C)c(=O)c2c1` [Compound 341, 6-chloro-3-(((R)-1-(3,6-dimethyl-2-((1R,5S,6R)-6-(((1-methyl-1H-pyrazol-5-yl)oxy)methyl)-3-azabicyclo[3.1.0]hexan-3-yl)-4-oxo-3,4-dihydroquinazolin-8-yl)ethyl)amino)-N-(methylsulfonyl) picolinamide], the IC50 in test [1] is < 250 nM; in test [2], 1000 to 5000 nM.
Turning to `Cc1cc([C@@H](C)Nc2ccc(Cl)nc2C(=O)NS(C)(=O)=O)c2nc(N3[C@@H]4CC[C@H]3C[C@H](c3ccn(C)n3)C4)n(C)c(=O)c2c1` [Compound 342, 6-chloro-3-(((R)-1-(3,6-dimethyl-2-((1R,3S,5S)-3-(1-methyl-1H-pyrazol-3-yl)-8-azabicyclo[3.2.1]octan-8-yl)-4-oxo-3,4-dihydroquinazolin-8-yl)ethyl)amino)-N-(methylsulfonyl) picolinamide], the half-maximal inhibitory concentration (IC50) in test [1] is < 250 nM; in test [2], 1000 to 5000 nM.
Consider `Cc1cc([C@@H](C)Nc2ccc(Cl)nc2C(=O)NS(C)(=O)=O)c2nc(N3CCC[C@@H](Oc4cccnc4)C3)n(C)c(=O)c2c1` [Compound 343, 6-chloro-3-(((R)-1-(3,6-dimethyl-4-oxo-2-((R)-3-(pyridin-3-yloxy)piperidin-1-yl)-3,4-dihydroquinazolin-8-yl)ethyl)amino)-N-(methylsulfonyl) picolinamide], for which the IC50 is 250 to 500 nM in test [1] and ≥ 5000 nM in test [2].
For `Cc1cc([C@@H](C)Nc2ccc(Cl)nc2C(=O)NS(C)(=O)=O)c2nc(N3CCC4(CCc5c(cnn5C)C4)CC3)n(C)c(=O)c2c1` [Compound 344, (R)-6-chloro-3-((1-(3,6-dimethyl-2-(1-methyl-1,4,6,7-tetrahydrospiro[indazole-5,4′-piperidin]-1′-yl)-4-oxo-3,4-dihydroquinazolin-8-yl)ethyl)amino)-N-(methylsulfonyl) picolinamide] the same measures were < 250 nM and ≥ 5000 nM.
The corresponding values for `Cc1cc([C@@H](C)Nc2ccc(Cl)nc2C(=O)NS(C)(=O)=O)c2nc(N3CC[C@@H](Oc4cccnc4)C3)n(C)c(=O)c2c1` [Compound 345, 6-chloro-3-(((R)-1-(3,6-dimethyl-4-oxo-2-((R)-3-(pyridin-3-yloxy)pyrrolidin-1-yl)-3,4-dihydroquinazolin-8-yl)ethyl)amino)-N-(methylsulfonyl) picolinamide] are < 250 nM and 1000 to 5000 nM.
`Cc1cc([C@@H](C)Nc2ccc(Cl)nc2C(=O)NS(C)(=O)=O)c2nc(N3CCC(c4cccn(C)c4=O)CC3)n(C)c(=O)c2c1` [Compound 348, (R)-6-chloro-3-((1-(3,6-dimethyl-2-(4-(1-methyl-2-oxo-1,2-dihydropyridin-3-yl)piperidin-1-yl)-4-oxo-3,4-dihydroquinazolin-8-yl)ethyl)amino)-N-(methylsulfonyl) picolinamide]: the figures for the IC50 in test [1] and in test [2] were < 250 nM and ≥ 5000 nM, respectively.
The corresponding values for `Cc1cc([C@@H](C)Nc2ccc(Cl)nc2C(=O)NS(C)(=O)=O)c2nc(-c3ccc(N(C)C)nc3)n(C)c(=O)c2c1` [Compound 349, (R)-6-chloro-3-((1-(2-(6-(dimethylamino)pyridin-3-yl)-3,6-dimethyl-4-oxo-3,4-dihydroquinazolin-8-yl)ethyl)amino)-N-(methylsulfonyl) picolinamide] are < 250 nM and 1000 to 5000 nM.
Consider `Cc1cc([C@@H](C)Nc2ccc(Cl)nc2C(=O)NS(C)(=O)=O)c2nc(N3Cc4nn(-c5ccccc5C)c(N)c4C3)n(C)c(=O)c2c1` [Compound 350, (R)-3-((1-(2-(3-amino-2-(o-tolyl)-2,6-dihydropyrrolo[3,4-c]pyrazol-5(4H)-yl)-3,6-dimethyl-4-oxo-3,4-dihydroquinazolin-8-yl)ethyl)amino)-6-chloro-N-(methylsulfonyl) picolinamide], for which the figures for the IC50 in test [1] and in test [2] were < 250 nM and ≥ 5000 nM, respectively.
Regarding `Cc1cc([C@@H](C)Nc2ccc(Cl)nc2C(=O)NS(C)(=O)=O)c2nc(N3CC[C@H](Oc4ccnn4C)C3)n(C)c(=O)c2c1` [Compound 351, 6-chloro-3-(((R)-1-(3,6-dimethyl-2-((S)-3-((1-methyl-1H-pyrazol-5-yl)oxy)pyrrolidin-1-yl)-4-oxo-3,4-dihydroquinazolin-8-yl)ethyl)amino)-N-(methylsulfonyl) picolinamide], the IC50 is < 250 nM in test [1] and 1000 to 5000 nM in test [2].
As for `Cc1cc([C@@H](C)Nc2ccc(Cl)nc2C(=O)NS(C)(=O)=O)c2nc(N3CC[C@@H](Oc4ccnn4C)C3)n(C)c(=O)c2c1` [Compound 352, 6-chloro-3-(((R)-1-(3,6-dimethyl-2-((R)-3-((1-methyl-1H-pyrazol-5-yl)oxy)pyrrolidin-1-yl)-4-oxo-3,4-dihydroquinazolin-8-yl)ethyl)amino)-N-(methylsulfonyl) picolinamide], the results for the IC50 in test [1] and in test [2] were < 250 nM and 1000 to 5000 nM, respectively.
In the case of `Cc1cc([C@@H](C)Nc2ccc(Cl)nc2C(=O)NS(C)(=O)=O)c2nc(N3CC[C@H](Oc4ccnnc4)C3)n(C)c(=O)c2c1` [Compound 353, 6-chloro-3-(((R)-1-(3,6-dimethyl-4-oxo-2-((S)-3-(pyridazin-4-yloxy)pyrrolidin-1-yl)-3,4-dihydroquinazolin-8-yl)ethyl)amino)-N-(methylsulfonyl) picolinamide], the IC50 was 250 to 500 nM in test [1] and 1000 to 5000 nM in test [2].
For the compound `Cc1cc([C@@H](C)Nc2ccc(Cl)nc2C(=O)NS(C)(=O)=O)c2nc(N3CC[C@H](Oc4cncnc4)C3)n(C)c(=O)c2c1` [Compound 354, 6-chloro-3-(((R)-1-(3,6-dimethyl-4-oxo-2-((S)-3-(pyrimidin-5-yloxy)pyrrolidin-1-yl)-3,4-dihydroquinazolin-8-yl)ethyl)amino)-N-(methylsulfonyl) picolinamide], the IC50 in test [1] was < 250 nM; in test [2], 1000 to 5000 nM.
For `Cc1cc([C@@H](C)Nc2ccc(Cl)nc2C(=O)NS(C)(=O)=O)c2nc(N3CCC(c4cc(C#N)n(C)n4)CC3)n(C)c(=O)c2c1` [Compound 357, (R)-6-chloro-3-((1-(2-(4-(5-cyano-1-methyl-1H-pyrazol-3-yl)piperidin-1-yl)-3,6-dimethyl-4-oxo-3,4-dihydroquinazolin-8-yl)ethyl)amino)-N-(methylsulfonyl) picolinamide] the same measures were < 250 nM and 1000 to 5000 nM.
In the case of `Cc1cc([C@@H](C)Nc2ccc(Cl)nc2C(=O)NS(C)(=O)=O)c2nc(N3CCC4(CCN(c5ccn(C)n5)CC4)C3)n(C)c(=O)c2c1` [Compound 358, (R)-6-chloro-3-((1-(3,6-dimethyl-2-(8-(1-methyl-1H-pyrazol-3-yl)-2,8-diazaspiro[4.5]decan-2-yl)-4-oxo-3,4-dihydroquinazolin-8-yl)ethyl)amino)-N-(methylsulfonyl) picolinamide], the concentration for half-maximal inhibition (IC50) in test [1] is < 250 nM; in test [2], 1000 to 5000 nM.
For `Cc1cc([C@@H](C)Nc2ccc(Cl)nc2C(=O)NS(C)(=O)=O)c2nc(N3CCC4(CCN(c5ccn(C)n5)C4)CC3)n(C)c(=O)c2c1` [Compound 359, (R)-6-chloro-3-((1-(3,6-dimethyl-2-(2-(1-methyl-1H-pyrazol-3-yl)-2,8-diazaspiro[4.5]decan-8-yl)-4-oxo-3,4-dihydroquinazolin-8-yl)ethyl)amino)-N-(methylsulfonyl) picolinamide] the same measures were 250 to 500 nM and ≥ 5000 nM.
Take `Cc1cc([C@@H](C)Nc2ccc(Cl)nc2C(=O)NS(C)(=O)=O)c2nc(N3CCC[C@@H](Oc4cncnc4)C3)n(C)c(=O)c2c1` [Compound 360, 6-chloro-3-(((R)-1-(3,6-dimethyl-4-oxo-2-((R)-3-(pyrimidin-5-yloxy)piperidin-1-yl)-3,4-dihydroquinazolin-8-yl)ethyl)amino)-N-(methylsulfonyl) picolinamide]: the IC50 in test [1] is 250 to 500 nM; in test [2], ≥ 5000 nM.
The corresponding values for `Cc1cc([C@@H](C)Nc2ccc(Cl)nc2C(=O)NS(C)(=O)=O)c2nc(N3CCC4(CCN(c5ccn(C)n5)CC4)CC3)n(C)c(=O)c2c1` [Compound 361, (R)-6-chloro-3-((1-(3,6-dimethyl-2-(9-(1-methyl-1H-pyrazol-3-yl)-3,9-diazaspiro[5.5]undecan-3-yl)-4-oxo-3,4-dihydroquinazolin-8-yl)ethyl)amino)-N-(methylsulfonyl) picolinamide] are 250 to 500 nM and ≥ 5000 nM.
